Drawing on patent US9745305B2, “Modulators of methyl modifying enzymes, compositions and uses thereof” (Constellation Pharmaceuticals, Inc., priority 2013, dated 2017), this text covers IC50 and EC50 for 3 compounds.

One experiment addresses Y641N EZH2 (Homo sapiens, UniProt Q15910, Y641N). Put plainly: Assay for Y641N EZH2 (as the EZH2 assay, H3K27Me2 oligonucleosomes as substrate). Format: biochemical. The conditions noted are these: Y641N EZH2 mutant, reconstituted H3K27Me2 oligonucleosomes as substrate. In a few lines: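 rPRC2 (2 nM EZH2) with 0.2 μM reconstituted H3K27Me2 biotinylated oligonucleosomes, 3.6 μM H3K27me3 peptide, 0.2 μM ^3H SAM in Tris pH 8.5; compounds (80 to 0.16 μM, 2-fold) pre-incubated 20 min, reaction 60 min, SAH/EDTA quench. Tritiated product captured on streptavidin plates, scintillation counted; IC50 from 4-parameter fit.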

For experiment [1], the system named is H3K27me3 mark in Hela cells expressing wild type EZH2. The experiment in a line: H3K27me3 Alpha Hela Assay (AlphaLISA). It counts as cell-based. The settings on record: Homo sapiens, 72 hrs, read-out: H3K27me3_Alpha_HeLa (EC50). As for the experimental part:
H3K27me3 Alpha Hela Assay (AlphaLISA). Ten different doses of each test compound (in a series of 3-fold dilutions) were plated in duplicate 384-well tissue culture treated plates (Catalog #781080; Greiner Bio One; Monroe, N.C.). Hela cells grown in culture were trypsinized and counted using a Countess® cell counter (Catalog # C10281; Life Technologies, Grand Island, N.Y.). Cell were diluted to 67,000 cells per mL in 10% DMEM (Catalog #10569-010 Life Technologies, Grand Island, N.Y.) and 15 μL (1,000 cells) were plated into each well using the Biotek MicroFlo™ Select Dispenser (BioTek Instruments, Inc. Vermont, USA),) of the 384-well plate. Plates were incubated at 37° C./5% CO2 for 72 hrs. One of the duplicate plates was processed for HeLa assay and the other for viability.
To the plate processed for AlphaLISA was added 5 μL per well Cell-Histone Lysis buffer (1×) (Catalog # AL009F1 Perkin Elmer; Waltham, Mass.) and the plate was incubated at RT for 30 minutes on a plate shaker with low speed (Model#4625-Q Thermo Scientific; Waltham, Mass.). Then, 10 μL per well Histone Extraction buffer (catalog # AL009F2; Perkin Elmer; Waltham, Mass.) was added and the plate further incubated at RT for 20 min on plate shaker with low speed. To each well was then added 10 μL per well of a 5× mix of anti-K27me3 acceptor beads plus Biotinylated anti-Histone H3 (C-ter) Antibody (diluted to 3 nM final) (Catalog #AL118 Perkin Elmer; Waltham, Mass.). Dilution of the acceptor beads and then anti-Histone H3 was with 1× Histone Detection buffer (Catalog # AL009F3 Perkin Elmer; Waltham, Mass.) which was produced diluted from the 10× stock provided. The plate was sealed with an aluminum plate sealer and incubated at 23° C. for 60 min. We then added 10 μL 5× solution of Streptavidin Donor beads (Catalog #6760002 Perkin Elmer; Waltham, Mass.) (20 μg/mL final in 1× Histone Detection Buffer), sealed the plate with Aluminum plate sealer and incubated at 23° C. for 30 min. The plates were then read using an EnVision-Alpha Reader (model #2104 Perkin Elmer; Waltham, Mass.).
Data from both assays was analyzed using Assay Assistant (Constellation Pharmaceuticals In-house product) and Activity Base (IDBS Ltd, Surrey, UK) template. Data files were imported to Assay Assistant and assay conditions were specified. A unique Analysis ID was created and the data files exported to Activity Base. An analysis template was created on Activity Base to measure dose-dependent inhibition of H3K27me3 mark and cell viability respectively. Readout of DMSO wells were used to normalize the data. Resulting curves were fitted using Activity base software Model 205 (IDBS Ltd, Surrey, UK). The data was checked for quality, validated and integrated in excel format using SARview (IDBS Ltd, Surrey, UK).
For orientation: In Alpha technology, singlet oxygen from a donor bead excites a nearby acceptor bead.

For a further experiment, the target named is EZH2 (Homo sapiens, UniProt Q15910). The experiment in a line: EZH2 Assay (3H SAM methyl transfer, rPRC2, FlashPlate). It counts as biochemical. The conditions noted are these: rPRC2, biotinylated oligonucleosomes, 0.2 μM 3H SAM, 2 nM EZH2. In a few lines: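 rPRC2 (2 nM EZH2) was preincubated 20 min with compound (80 to 0.16 μM, 10 points), then reacted 60 min with 0.2 μM ³H-SAM, 0.2 μM biotinylated oligonucleosomes and 3.6 μM H3K27me3 peptide at pH 8.5. Methylated product was captured on SAV FlashPlates and counted, and IC50 came from a 4-parameter fit.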

In general, IC50 refers to the concentration needed to halve the response being measured. Low readings indicate inhibition by little substance, high ones a need for much substance. Broadly, the EC50 is the concentration giving half of the maximal effect.

Chain of EZH2 (Q15910 whole entry): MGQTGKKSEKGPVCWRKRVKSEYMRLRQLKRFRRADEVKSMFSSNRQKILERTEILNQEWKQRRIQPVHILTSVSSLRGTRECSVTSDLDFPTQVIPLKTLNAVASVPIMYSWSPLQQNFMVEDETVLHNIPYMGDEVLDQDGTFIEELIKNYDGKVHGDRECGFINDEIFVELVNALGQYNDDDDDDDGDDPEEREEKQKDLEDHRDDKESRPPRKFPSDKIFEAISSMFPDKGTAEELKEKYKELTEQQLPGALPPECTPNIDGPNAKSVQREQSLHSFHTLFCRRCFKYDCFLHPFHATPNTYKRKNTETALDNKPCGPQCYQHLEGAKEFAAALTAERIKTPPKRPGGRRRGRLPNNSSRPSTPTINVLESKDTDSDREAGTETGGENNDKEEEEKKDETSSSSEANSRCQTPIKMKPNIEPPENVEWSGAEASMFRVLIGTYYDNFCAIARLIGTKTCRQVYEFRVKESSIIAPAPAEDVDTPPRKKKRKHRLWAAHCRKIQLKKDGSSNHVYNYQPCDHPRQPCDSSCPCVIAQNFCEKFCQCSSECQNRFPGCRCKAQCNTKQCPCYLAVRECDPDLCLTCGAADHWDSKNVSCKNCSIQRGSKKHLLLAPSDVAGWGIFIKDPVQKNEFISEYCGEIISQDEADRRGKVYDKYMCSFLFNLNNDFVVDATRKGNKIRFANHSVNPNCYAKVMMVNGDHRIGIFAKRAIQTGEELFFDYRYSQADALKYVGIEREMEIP
Chain of EZH2 (O75530 whole entry partner): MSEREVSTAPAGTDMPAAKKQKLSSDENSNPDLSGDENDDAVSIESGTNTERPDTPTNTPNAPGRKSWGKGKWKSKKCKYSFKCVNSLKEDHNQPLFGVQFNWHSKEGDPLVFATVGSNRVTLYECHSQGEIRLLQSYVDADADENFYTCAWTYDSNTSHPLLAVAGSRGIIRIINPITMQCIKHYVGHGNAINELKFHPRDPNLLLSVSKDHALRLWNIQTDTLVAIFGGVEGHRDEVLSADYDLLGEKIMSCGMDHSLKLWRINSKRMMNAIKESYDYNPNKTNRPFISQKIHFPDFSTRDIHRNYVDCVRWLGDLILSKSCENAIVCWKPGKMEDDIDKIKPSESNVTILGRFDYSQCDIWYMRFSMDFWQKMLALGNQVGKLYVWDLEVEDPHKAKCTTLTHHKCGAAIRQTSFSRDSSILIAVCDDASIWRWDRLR
Chain of EZH2 (Q15022 whole entry partner): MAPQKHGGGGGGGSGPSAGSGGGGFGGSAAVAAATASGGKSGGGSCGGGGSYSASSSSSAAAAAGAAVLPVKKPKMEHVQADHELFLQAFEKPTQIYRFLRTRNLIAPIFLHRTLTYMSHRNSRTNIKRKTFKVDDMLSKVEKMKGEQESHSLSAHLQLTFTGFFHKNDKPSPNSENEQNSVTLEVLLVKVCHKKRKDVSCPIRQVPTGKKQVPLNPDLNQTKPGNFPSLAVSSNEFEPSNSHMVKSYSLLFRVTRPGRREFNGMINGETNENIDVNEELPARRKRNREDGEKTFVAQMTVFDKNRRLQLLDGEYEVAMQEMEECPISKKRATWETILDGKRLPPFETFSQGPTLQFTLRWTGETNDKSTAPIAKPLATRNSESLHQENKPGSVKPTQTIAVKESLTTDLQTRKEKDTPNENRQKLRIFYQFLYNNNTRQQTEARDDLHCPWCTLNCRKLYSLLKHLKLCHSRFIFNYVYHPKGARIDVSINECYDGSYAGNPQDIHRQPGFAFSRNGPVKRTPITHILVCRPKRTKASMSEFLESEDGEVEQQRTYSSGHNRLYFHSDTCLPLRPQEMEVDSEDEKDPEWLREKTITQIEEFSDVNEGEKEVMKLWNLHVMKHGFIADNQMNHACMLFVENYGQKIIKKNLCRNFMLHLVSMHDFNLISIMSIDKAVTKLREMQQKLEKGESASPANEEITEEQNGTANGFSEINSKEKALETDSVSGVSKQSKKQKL
Chain of Y641N EZH2 (Q15910 whole entry Y641N): as the sequence (Q15910 whole entry) above, with Y641N counted along it
Chain of Y641N EZH2 (O75530 whole entry partner): as the sequence (O75530 whole entry partner) above
Chain of Y641N EZH2 (Q15022 whole entry partner): as the sequence (Q15022 whole entry partner) above

Consider `COc1cc(C)[nH]c(=O)c1CNC(=O)c1c(C)c(C(C)c2ccccc2)n2ncccc12` (racemic) [Compound 101, (±)-N-((4-methoxy-6-methyl-2-oxo-1,2-dihydropyridin-3-yl)methyl)-6-methyl-7-(1-phenylethyl)pyrrolo[1,2-b]pyridazine-5-carboxamide], for which the IC50 against Y641N EZH2 and against EZH2 was < 100 nM each time. Besides, the EC50 in experiment [1] was < 400 nM.
Turning to `COc1cc(C)[nH]c(=O)c1CNC(=O)c1c(C)c(C(C)C2CCOCC2)n2ncccc12` (racemic) [Compound 116, (±)-N-((4-methoxy-6-methyl-2-oxo-1,2-dihydropyridin-3-yl)methyl)-6-methyl-7-(1-(tetrahydro-2H-pyran-4-yl)ethyl)pyrrolo[1,2-b]pyridazine-5-carboxamide], the IC50 against Y641N EZH2 and against EZH2 was < 100 nM throughout. In addition, in experiment [1], the EC50 was < 400 nM.
For the compound `COc1cc(C)[nH]c(=O)c1CNC(=O)c1c(C)c(C(C)c2ccccc2)n2ncccc12` (single isomer, unassigned) [Compound 105, (R or S)-N-((4-methoxy-6-methyl-2-oxo-1,2-dihydropyridin-3-yl)methyl)-6-methyl-7-(1-phenylethyl)pyrrolo[1,2-b]pyridazine-5-carboxamide], the IC50 against Y641N EZH2 and against EZH2 was < 100 nM each time. Further, the concentration giving a half-maximal response (EC50) in experiment [1] is < 400 nM.
